This note sets out measurements from patent publication EP2664616A1, “Hydantoin and thiohydantoin derivatives as antiviral drugs” (priority 2012, dated 2013).

The test system of the test is HCV replicon Luc Neo ET. As to the kind of experiment: HCV replication inhibition assay (replicon assay, luciferase reporter). The following applies: Huh-7 cell lines containing HCV replicon Luc Neo ET, 72 hours with compound, 1 % DMSO, firefly luciferase reporter, concentration that produces 50 % of replication inhibition; for pEC50: read-out: EC50 Replicon LucneoET. The format is cell-based. Here is the method:
The compounds according to the present invention were tested for their ability to inhibit HCV replication as follows:
Huh-7 cell lines containing HCV replicon Luc Neo ET (Reblikon) were maintained in DMEM supplemented with 10% SVF, 2 mM glutamine, and 1 X NEAA, 100 U / ml penicillin, and 100 µg / ml streptomycine. Cells were maintained in medium supplemented with 0.5 mg/ml G418, at 37°C and 5% CO2 in a humidified atmosphere. Cells were dissociated at sub confluence with trypsin EDTA 1X.
Replicon Luc Neo ET is bicistronic expression constructs (Lohmann et al, 1999, Science 285, 110-113). In brief, the structural genes of the HCV genome were replaced by heterologous sequences; the gene encoding the neomycin phosphotransferase (NPT) and the internal ribosome entry site (IRES) of the encephalomyocarditis virus (EMCV). The bicistronic construct is therefore composed of the following elements: HCV-IRES nucleotides 1-389 for Luc Neo ET, the NPT gene, the EMCV-IRES directing translation of downstream HCV sequences from NS2 or NS3 up to the authentic 3' end of the genome. HCV Polyprotein of Luc Neo ET replicon harbours the cell culture adaptive mutations E1202G, T1280I, K1846T. G418-resistance is only possible with cells containing high amounts of replicon.
Cells were dissociated the day before addition of compounds and seeded in 96 well-plates at a final concentration of 27 777.77 cells.ml^-1.cm^-2 in 90µl final volume of culture medium per well and were maintained at 37°C and 5% CO2 in a humidified atmosphere for 24 hours. 10 µl of compounds to be tested were added 24 hours after seeding. Final concentration of DMSO was 1 %. Cells were incubated in the presence of compounds for 72 hours after which expression of firefly luciferase reporter gene was quantified. Briefly, culture medium was removed and cells were lysed by addition of 100 µl of lysis buffer containing 125 mM Tris Phosphate ph 7.8, 10 mM EDTA, 5 mM DTT, 50 % glycerol and 5 % Triton. Plates were vortexed 10 min at 1300 rpm. 100µl of luciferin solution 1X were added to each well. Luciferin solution contained 40 mM Tris Phosphate ph 7.8, 0.2 mM EDTA, 67 mM DTT, 2.14 mM MgCl2, 5.4 mM MgSO4, 4.7 x 10^-4 M luciferin, 5.3 x 10^-4 M ATP and 2.7 x 10^-4 M Acetyl co enzyme A. Luminescence was immediately measured with Berthold Microlumat Plus LB 96V luminometer with an integration of 1 sec. Inhibition was calculated using the formula: % inhibition = 1-[(RLUsample-RLUbackground)/(RLUsignal-RLUbackground)].
The Table 1 below illustrates data on the biological activity of compounds of the present invention. Results are expressed as EC50 which is the concentration that produces 50 % of replication inhibition. Table 1. HCV replication inhibition assay
For orientation: Replicon systems follow genome replication, usually without infectious particles.

pEC50: −log10 of the molar value. Where two headings read alike, the source gives them in different places.

The term pEC50 denotes the negative decadic logarithm of the EC50, by convention in mol/L. Turning to `COc1ccc(CCN2C(=S)N(c3ccc(F)cc3)C(=O)C2CC(=O)Nc2cnc(OC)nc2)cc1` (centres unmarked) [Example 82, 2-[1-(4-fluorophenyl)-3-[2-(4-methoxyphenyl)ethyl]-5-oxo-2-sulfanylideneimidazolidin-4-yl]-N-(2-methoxypyrimidin-5-yl)acetamide], the pEC50 (Hepatitis C virus) is > 5.30.
The same measure, in the same setting: under `COc1ccc(CCN2C(=S)N(c3ccc(F)cc3)C(=O)C2CC(=O)Nc2ccc(OC)cn2)cc1` (centres unmarked) [Example 83, 2-[1-(4-fluorophenyl)-3-[2-(4-methoxyphenyl)ethyl]-5-oxo-2-sulfanylideneimidazolidin-4-yl]-N-(5-methoxypyridin-2-yl)acetamide] stands > 6.30; under `COc1ccc(CCN2C(=S)N(c3ccc(F)cc3)C(=O)C2CC(=O)Nc2ncc(OC)cn2)cc1` (centres unmarked) [Example 84, 2-[1-(4-fluorophenyl)-3-[2-(4-methoxyphenyl)ethyl]-5-oxo-2-sulfanylideneimidazolidin-4-yl]-N-(5-methoxypyrimidin-2-yl)acetamide], > 6.30.
On the same count and under the same terms, under `COc1ccc(CCN2C(=S)N(c3ccc(F)cc3)C(=O)C2CC(=O)Nc2ccc(OC)cc2F)cc1` (centres unmarked) [Example 85, N-(2-fluoro-4-methoxyphenyl)-2-[1-(4-fluorophenyl)-3-[2-(4-methoxyphenyl)ethyl]-5-oxo-2-sulfanylideneimidazolidin-4-yl]acetamide] stands > 6.30.
For `COc1ccc(CCN2C(=S)N(c3ccc(F)cc3)C(=O)C2CC(=O)Oc2ccc(OC)cc2)cc1` (centres unmarked) [Example 86, 4-methoxyphenyl 2-[1-(4-fluorophenyl)-3-[2-(4-methoxyphenyl)ethyl]-5-oxo-2-sulfanylideneimidazolidin-4-yl]acetate], the negative-log EC50 (pEC50) (Hepatitis C virus) is > 4.52.
Still for that read-out and setting: under `COc1ccc(CCN2C(=S)N(c3ccc(F)cc3)C(=O)C2CC(=O)Nc2ccc(N3CCCC3=O)cc2)cc1` (centres unmarked) [Example 87, 2-[1-(4-fluorophenyl)-3-[2-(4-methoxyphenyl)ethyl]-5-oxo-2-sulfanylideneimidazolidin-4-yl]-N-[4-(2-oxopyrrolidin-1-yl)phenyl]acetamide] stands > 5.30; under `COc1ccc(CCN2C(=S)N(c3ccc(F)cc3)C(=O)C2CC(=O)Nc2ncc(OC)s2)cc1` (centres unmarked) [Example 88, 2-[1-(4-Fluorophenyl)-3-[2-(4-methoxyphenyl)ethyl]-5-oxo-2-sulfanylideneimidazolidin-4-yl]-N-(5-methoxy-1,3-thiazol-2-yl)acetamide], > 6.30.
Take `COc1ccc(/C=C\N2C(=S)N(c3ccc(F)cc3)C(=O)C2CC(=O)Nc2ccc(OC)cn2)cc1` (centres unmarked) [Example 89, 2-[1-(4-Fluorophenyl)-3-[(Z)-2-(4-methoxyphenyl)ethenyl]-5-oxo-2-sulfanylideneimidazolidin-4-yl]-N-(5-methoxypyridin-2-yl)acetamide]: the “EC50 Replicon LucneoET” value was “Non Active”.
For the compound `COc1ccc(CCN2C(=S)N(c3ccccc3)C(=O)/C2=C\C(=O)Nc2ccc(N(C)C)cc2)cc1` [Example 90, N-[4-(dimethylamino)phenyl]-2-[(4E)-3-[2-(4-methoxyphenyl)ethyl]-5-oxo-1-phenyl-2-sulfanylideneimidazolidin-4-ylidene]acetamide], the negative-log EC50 (pEC50) (Hepatitis C virus) is > 6.30.
Still for that read-out and setting: under `COc1ccc(CCN2C(=S)N(c3ccc(F)cc3)C(=O)C2CC(=O)Nc2ccc(O)cc2)cc1` (centres unmarked) [Example 91, 2-[1-(4-fluorophenyl)-3-[2-(4-methoxyphenyl)ethyl]-5-oxo-2-sulfanylideneimidazolidin-4-yl]-N-(4-hydroxyphenyl)acetamide] stands > 6.30.
On the same count and under the same terms, under `COc1ccc(CCCN2C(=S)N(c3ccc(F)cc3)C(=O)C2CC(=O)Nc2ccc(OC)cn2)cc1` (centres unmarked) [Example 92, 2-[1-(4-fluorophenyl)-3-[3-(4-methoxyphenyl)propyl]-5-oxo-2-sulfanylideneimidazolidin-4-yl]-N-(5-methoxypyridin-2-yl)acetamide] stands > 6.30; under `COc1ccc(CCCCN2C(=S)N(c3ccc(F)cc3)C(=O)C2CC(=O)Nc2ccc(OC)cn2)cc1` (centres unmarked) [Example 93, 2-[1-(4-fluorophenyl)-3-[4-(4-methoxyphenyl)butyl]-5-oxo-2-sulfanylideneimidazolidin-4-yl]-N-(5-methoxypyridin-2-yl)acetamide], > 6.30.
With `COc1ccc(/C=C/N2C(=S)N(c3ccc(F)cc3)C(=O)C2CC(=O)Nc2ccc(OC)cn2)cc1` (centres unmarked) [Example 95], the pEC50 is > 6.30.
On the same count and under the same terms, in the case of `COc1ccc(CCN2C(=S)N(c3ccc(F)cc3)C(=O)C2CC(=O)Nc2c(F)cc(OC)cc2F)cc1` (centres unmarked) [Example 97] it was > 6.30; in that of `COc1ccc(NC(=O)CC2C(=O)N(c3ccc(F)cc3)C(=S)N2CCc2ccc(OCCNC(=O)OC(C)(C)C)cc2)nc1` (centres unmarked) [Example 98], > 6.30; in that of “N-[4-(dimethylamino)phenyl]-2-[1-(4-fluorophenyl)-4-hydroxy-3-[2-(4-methoxyphenyl)ethyl]-5-oxo-2-sulfanylideneimidazolidin-4-yl]acetamide [Example 77]”, > 6.30.
As for “N-[4-(dimethylamino)phenyl]-2-{4-hydroxy-3-[2-(4-methoxyphenyl)ethyl]-5-oxo-1-phenyl-2-sulfanylideneimidazolidin-4-yl}acetamide [Example 70]”, the pEC50 was > 6.30.
